From PubChem BioAssay (NCI)
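1) Cells in 96-well plates. 2) Compound, 48 h, 5 concentrations. 3) Linear interpolation between surrounding doses. 4) Unreached endpoint = highest concentration. Abbreviation: GI50, concentration required for 50% inhibition of growth. At the TGI there is no net growth.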

What was measured:
Assay in all cases: DTP human tumour cell line panel, 48 h
[1] = tested on: A498 renal
[2] = tested on: ACHN renal
[3] = tested on: HL-60(TB) leukemia
[4] = tested on: HS 578T breast
[5] = tested on: K-562 leukemia
[6] = tested on: MALME-3M melanoma
[7] = tested on: NCI/ADR-RES ovarian
[8] = tested on: SK-OV-3 ovarian
[9] = tested on: T-47D breast
[10] = tested on: TK-10 renal
[11] = tested on: UACC-257 melanoma
[12] = tested on: UO-31 renal
[13] = tested on: 786-0 renal
[14] = tested on: A549 NSCLC
[15] = tested on: BT-549 breast
[16] = tested on: CAKI-1 renal
[17] = tested on: CCRF-CEM leukemia
[18] = tested on: COLO 205 colon
[19] = tested on: DU-145 prostate
[20] = tested on: EKVX NSCLC
[21] = tested on: HCC-2998 colon
[22] = tested on: HCT-116 colon
[23] = tested on: HCT-15 colon
[24] = tested on: HOP-62 NSCLC
[25] = tested on: HOP-92 NSCLC
[26] = tested on: HT29 colon
[27] = tested on: IGROV1 ovarian
[28] = tested on: LOX IMVI melanoma
[29] = tested on: M14 melanoma
[30] = tested on: MCF7 breast
[31] = tested on: MDA-MB-231 breast
[32] = tested on: MDA-MB-435
[33] = tested on: MOLT-4 leukemia
[34] = tested on: NCI-H226 lung
[35] = tested on: NCI-H23 lung
[36] = tested on: NCI-H460 lung
[37] = tested on: NCI-H522 lung
[38] = tested on: OVCAR-3 ovarian
[39] = tested on: OVCAR-4 ovarian
[40] = tested on: OVCAR-5 ovarian
[41] = tested on: OVCAR-8 ovarian
[42] = tested on: PC-3 prostate
[43] = tested on: RPMI-8226 leukemia
[44] = tested on: RXF 393 renal
[45] = tested on: SF-268 CNS
[46] = tested on: SF-295 CNS
[47] = tested on: SF-539 CNS
[48] = tested on: SK-MEL-2 melanoma
[49] = tested on: SK-MEL-28 melanoma
[50] = tested on: SK-MEL-5 melanoma
[51] = tested on: SN12C renal
[52] = tested on: SNB-19 CNS
[53] = tested on: SNB-75 CNS
[54] = tested on: SR leukemia
[55] = tested on: SW-620 colon
[56] = tested on: U251 CNS
[57] = tested on: UACC-62 melanoma

NC(N)=Nc1ccc(Nc2cccc(Nc3ccc(Cl)c(C(F)(F)F)c3)c2)cn1
GI50 [1]: 1.69 µM | TGI [1]: 4.72 µM | GI50 [2]: 3.58 µM | TGI [2]: 17.5 µM | GI50 [3]: 2.31 µM | TGI [3]: 5.74 µM | GI50 [4]: 2.04 µM | TGI [4]: 4.94 µM | GI50 [5]: 2.54 µM | TGI [5]: > 100 µM | GI50 [6]: 2.01 µM | TGI [6]: 5.36 µM | GI50 [7]: 21.6 µM | TGI [7]: 93.4 µM | GI50 [8]: 2.81 µM | TGI [8]: 6.91 µM | GI50 [9]: 1.85 µM | TGI [9]: 4.87 µM | GI50 [10]: 2.77 µM | TGI [10]: 7.58 µM | GI50 [11]: 2.39 µM | TGI [11]: 6.53 µM | GI50 [12]: 4.33 µM | TGI [12]: 38.3 µM

C=C1C(=O)O[C@@H]2C[C@@H](C)/C=C\C(=O)[C@](C)(OC(C)=O)C[C@H](OC(=O)/C(C)=C\C)[C@@H]12
GI50 [13]: 2.66 µM | TGI [13]: 5.93 µM | GI50 [1]: 6.15 µM | TGI [1]: 13.5 µM | GI50 [14]: 7.78 µM | TGI [14]: 24.2 µM | GI50 [2]: 0.466 µM | TGI [2]: 0.885 µM | GI50 [15]: 3.02 µM | TGI [15]: 6.31 µM | GI50 [16]: 1.09 µM | TGI [16]: 3.97 µM | GI50 [17]: 0.834 µM | TGI [17]: 4.41 µM | GI50 [18]: 0.75 µM | TGI [18]: 2.6 µM | GI50 [19]: 2.52 µM | TGI [19]: 6.12 µM | GI50 [20]: 2.63 µM | TGI [20]: 6.27 µM | GI50 [21]: 4.14 µM | TGI [21]: 8.31 µM | GI50 [22]: 0.835 µM | TGI [22]: 3.13 µM | GI50 [23]: 0.675 µM | TGI [23]: 2.13 µM | GI50 [3]: 1 µM | TGI [3]: 5.75 µM | GI50 [24]: 7.2 µM | TGI [24]: 20.7 µM | GI50 [25]: 3.74 µM | TGI [25]: 8.05 µM | GI50 [4]: 12.3 µM | TGI [4]: > 25 µM | GI50 [26]: 1.06 µM | TGI [26]: 4 µM | GI50 [27]: 4.31 µM | TGI [27]: 9.91 µM | GI50 [5]: 0.978 µM | TGI [5]: > 25 µM | GI50 [28]: 2.88 µM | TGI [28]: 6.18 µM | GI50 [29]: 3.69 µM | TGI [29]: 11 µM | GI50 [6]: 1.1 µM | TGI [6]: 5.11 µM | GI50 [30]: 0.971 µM | TGI [30]: 5.6 µM | GI50 [31]: 1.7 µM | TGI [31]: 5.89 µM | GI50 [32]: 3.91 µM | TGI [32]: 12.4 µM | GI50 [33]: 0.896 µM | TGI [33]: 4.25 µM | GI50 [34]: 3.48 µM | TGI [34]: 6.83 µM | GI50 [35]: 1.21 µM | TGI [35]: 5.95 µM | GI50 [36]: 7.02 µM | TGI [36]: 23.6 µM | GI50 [37]: 0.508 µM | TGI [37]: 1.22 µM | GI50 [7]: 2.8 µM | TGI [7]: > 25 µM | GI50 [38]: 0.94 µM | TGI [38]: 3.2 µM | GI50 [39]: 1.58 µM | TGI [39]: 8.48 µM | GI50 [40]: 2.53 µM | TGI [40]: 5.97 µM | GI50 [41]: 1.11 µM | TGI [41]: 23.9 µM | GI50 [42]: 4.77 µM | TGI [42]: 13.7 µM | GI50 [43]: 0.893 µM | TGI [43]: 2.94 µM | GI50 [44]: 0.683 µM | TGI [44]: 1.87 µM | GI50 [45]: 5.38 µM | TGI [45]: 20.8 µM | GI50 [46]: 7.73 µM | TGI [46]: 20.2 µM | GI50 [47]: 3.19 µM | TGI [47]: 6.52 µM | GI50 [48]: 4.45 µM | TGI [48]: 12.1 µM | GI50 [49]: 1.81 µM | TGI [49]: 5.49 µM | GI50 [50]: 3.7 µM | TGI [50]: 7.25 µM | GI50 [8]: 11.1 µM | TGI [8]: > 25 µM | GI50 [51]: 5.73 µM | TGI [51]: > 25 µM | GI50 [52]: 11.5 µM | TGI [52]: > 25 µM | GI50 [53]: 4.07 µM | TGI [53]: 17.6 µM | GI50 [54]: 0.845 µM | TGI [54]: 5.2 µM | GI50 [55]: 1.01 µM | TGI [55]: 3.54 µM | GI50 [10]: 0.996 µM | TGI [10]: 3.32 µM | GI50 [56]: 3.7 µM | TGI [56]: 8.64 µM | GI50 [11]: 2.66 µM | TGI [11]: 6.77 µM | GI50 [57]: 1.55 µM | TGI [57]: 5.93 µM | GI50 [12]: 2.91 µM | TGI [12]: 6 µM
